Measured values as given in article PMC5515969, “Effects of 31 FDA approved small-molecule kinase inhibitors on isolated rat liver mitochondria” (Archives of Toxicology, 2016).
Where two headings read alike, the source gives them in different places.

Assays:
[1] = tested on: isolated rat liver mitochondria; assay: Mitochondrial oxygen consumption (glutamate/malate or succinate driven, state 4 and state 3); assay type: biochemical; conditions: DMSO treated samples set as 1; as to State 3 respiration driven by succinate at 10XCmax: key: 0 indicates that the drug had no effects (negative); as to State 3 respiration driven by succinate at 1XCmax: key: 0 indicates that the drug had no effects (negative)
Summary of the method: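 Oxygen uptake on glutamate/malate or on succinate defined state 4; ADP added 3 min later gave state 3. Mitochondria isolated from rat liver by differential centrifugation, adjusted to 1 mg/ml and pretreated 5 min with inhibitor (0.1% DMSO final). Values relative to DMSO control, set to 1.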

RCC I = RCC I activity in submitochondrial particles; assay type: biochemical, rat; set-up: key to RCC I at 10XCmax / RCC I at 100XCmax / RCC I at 50XCmax / RCC I at 30XCmax / RCC I at 20XCmax: activity relative to DMSO-treated controls (control set as 1 = 100%); conditions: 10XCmax
Summary of the method: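 Kinase inhibitors were preincubated 15 min with submitochondrial particles (1 mg/ml) before complex activities were measured. RCC I was the rotenone-sensitive portion (activity without minus with rotenone). RCC I/V was read at 340 nm and RCC II at 600 nm every 1 min for 6 min. RCC III and IV were read at 550 nm every 10 s for 2 min. Activities are normalized to DMSO controls set as 1.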

RCC II = target: T1, RCC II (Rattus norvegicus, UniProt P21913+Q641Z9+Q6PCT8+Q920L2); assay: RCC II activity in submitochondrial particles; assay type: biochemical; set-up: key: activity relative to DMSO-treated controls (control set as 1 = 100%)
T1 construct: Submitochondrial particles were prepared by subjecting the intact mitochondria to three successive freeze–thaw cycles; from tissue; host or cells: rat liver mitochondria, used as submitochondrial particles
Summary of the method: (§1)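 Absorbance kinetics: A340 (RCC I, V) and A600 (RCC II) read each minute over 6 min, A550 (RCC III, IV) every 10 s over 2 min; RCC I taken as […]. Particles (1 mg/ml) pretreated 15 min with compound; DMSO-treated activity = 1.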

RCC III = RCC III activity in submitochondrial particles; assay type: biochemical, rat; set-up: key to RCC III at 100XCmax: activity relative to DMSO-treated controls (control set as 1 = 100%); conditions: 100XCmax
Summary of the method: as §1

RCC V = RCC V activity in submitochondrial particles; assay type: biochemical, rat; as to RCC V at 5XCmax: key: 0 indicates that the drug had no effects (negative)
Summary of the method: as §1

[2] = tested on: isolated rat liver mitochondria; assay: Mitochondrial swelling (absorbance at 535 nm); assay type: biochemical; conditions: difference in signal between KI and DMSO treated samples at the end of experiments; as to Swelling 5XCmax: key: 0 indicates that the drug had no effects (negative)
[3] = tested on: isolated rat liver mitochondria; conditions: positive control alamethicin treated samples
[4] = ref product labeling, cited from earlier work
[5] = ref product labeling, cited from earlier work; remark: listed apart in the source
[6] = tested on: isolated rat liver mitochondria; assay: Mitochondrial ROS production (CM-H2DCFDA); conditions: DMSO treated samples set as 1
[7] = relative to DMSO treated samples

T1 sequence (Q920L2 35-656): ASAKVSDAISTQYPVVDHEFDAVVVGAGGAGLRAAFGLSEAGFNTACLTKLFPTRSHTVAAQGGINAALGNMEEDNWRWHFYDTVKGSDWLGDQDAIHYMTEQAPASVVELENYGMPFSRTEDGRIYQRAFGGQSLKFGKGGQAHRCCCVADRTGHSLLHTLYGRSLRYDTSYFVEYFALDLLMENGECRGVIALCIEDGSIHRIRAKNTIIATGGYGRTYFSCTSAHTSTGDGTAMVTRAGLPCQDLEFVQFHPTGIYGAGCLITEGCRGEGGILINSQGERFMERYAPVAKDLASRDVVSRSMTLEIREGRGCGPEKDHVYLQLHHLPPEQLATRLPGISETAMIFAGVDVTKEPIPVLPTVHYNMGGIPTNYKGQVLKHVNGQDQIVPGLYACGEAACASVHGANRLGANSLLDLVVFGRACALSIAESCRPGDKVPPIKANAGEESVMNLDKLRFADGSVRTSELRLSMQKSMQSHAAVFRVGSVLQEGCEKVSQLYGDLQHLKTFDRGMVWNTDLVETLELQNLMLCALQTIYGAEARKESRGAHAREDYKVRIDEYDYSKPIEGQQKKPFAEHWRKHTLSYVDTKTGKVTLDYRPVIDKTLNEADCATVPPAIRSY
T1 sequence (P21913 31-282): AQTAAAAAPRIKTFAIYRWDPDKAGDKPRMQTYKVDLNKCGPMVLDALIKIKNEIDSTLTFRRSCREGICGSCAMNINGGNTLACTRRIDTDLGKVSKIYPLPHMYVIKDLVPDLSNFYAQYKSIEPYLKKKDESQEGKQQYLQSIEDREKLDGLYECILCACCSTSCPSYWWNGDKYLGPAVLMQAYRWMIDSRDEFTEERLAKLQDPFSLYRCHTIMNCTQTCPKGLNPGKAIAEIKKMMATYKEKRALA
T1 sequence (Q641Z9 1-169): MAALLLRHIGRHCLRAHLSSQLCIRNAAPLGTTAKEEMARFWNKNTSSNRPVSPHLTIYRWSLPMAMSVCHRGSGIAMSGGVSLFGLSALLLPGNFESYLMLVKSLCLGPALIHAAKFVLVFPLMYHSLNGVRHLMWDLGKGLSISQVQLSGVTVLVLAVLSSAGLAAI
T1 sequence (Q6PCT8 57-159): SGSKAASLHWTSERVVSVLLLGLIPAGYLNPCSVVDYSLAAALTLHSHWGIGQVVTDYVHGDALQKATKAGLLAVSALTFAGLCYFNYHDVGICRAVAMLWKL

## CC(=O)c1c(C)c2cnc(Nc3ccc(N4CCNCC4)cn3)nc2n(C2CCCC2)c1=O.Cl [palbociclib hydrochloride]
[1]
  State 3 respiration driven by glutamate/malate at 1XCmax: 0
  State 3 respiration driven by succinate at 1XCmax: 0
  State 4 respiration driven by glutamate/malate at 1XCmax: 0
  State 4 respiration driven by succinate at 1XCmax: 0
  State 3 respiration driven by glutamate/malate at 2.5XCmax: 0
  State 3 respiration driven by succinate at 2.5XCmax: 0
  State 4 respiration driven by glutamate/malate at 2.5XCmax: 0
  State 4 respiration driven by succinate at 2.5XCmax: 0
  State 3 respiration driven by glutamate/malate at 5XCmax: 0
  State 3 respiration driven by succinate at 5XCmax: 0
  State 4 respiration driven by glutamate/malate at 5XCmax: 0
  State 4 respiration driven by succinate at 5XCmax: 0
  State 3 respiration driven by glutamate/malate at 10XCmax: 0
  State 3 respiration driven by succinate at 10XCmax: 0
  State 4 respiration driven by glutamate/malate at 10XCmax: 0
  State 4 respiration driven by succinate at 10XCmax: 0
  State 3 respiration driven by glutamate/malate at 20XCmax: 0
  State 3 respiration driven by succinate at 20XCmax: 0
  State 4 respiration driven by glutamate/malate at 20XCmax: 0
  State 4 respiration driven by succinate at 20XCmax: 0
  State 3 respiration driven by glutamate/malate at 30XCmax: 0
  State 3 respiration driven by succinate at 30XCmax: 0
  State 4 respiration driven by glutamate/malate at 30XCmax: 0
  State 4 respiration driven by succinate at 30XCmax: 0
  State 3 respiration driven by glutamate/malate at 50XCmax: 0
  State 3 respiration driven by succinate at 50XCmax: 0
  State 4 respiration driven by glutamate/malate at 50XCmax: 0
  State 4 respiration driven by succinate at 50XCmax: 0
  State 3 respiration driven by glutamate/malate at 100XCmax: 0
  State 3 respiration driven by succinate at 100XCmax: 0
  State 4 respiration driven by glutamate/malate at 100XCmax: 0
  State 4 respiration driven by succinate at 100XCmax: 0
RCC I; DMSO treated samples set as 1
  RCC I at 10XCmax: 0
RCC II; DMSO treated samples set as 1
  RCC II at 1.0XCmax: 0
  RCC II at 2.5XCmax: 0
  RCC II at 5XCmax: 0
  RCC II at 10XCmax: 0
  RCC II at 20XCmax: 0
  RCC II at 30XCmax: 0
  RCC II at 50XCmax: 0
  RCC II at 100XCmax: 0
RCC III
  RCC III at 100XCmax: 0
RCC V; DMSO treated samples set as 1
  RCC V at 5XCmax: 0
  RCC V at 50XCmax: 0
[2]
  Swelling 1XCmax: 0
  Swelling 2.5XCmax: 0
  Swelling 5XCmax: 0
  Swelling 10XCmax: 0
  Swelling 20XCmax: 0
  Swelling 30XCmax: 0
  Swelling 50XCmax: 0
  Swelling 100XCmax: 0
[3]
  Cytochrome c release 1XCmax: 0
  Cytochrome c release 2.5XCmax: 0
  Cytochrome c release 5XCmax: 0
  Cytochrome c release 10XCmax: 0
  Cytochrome c release 20XCmax: 0
  Cytochrome c release 30XCmax: 0
  Cytochrome c release 50XCmax: 0
  Cytochrome c release 100XCmax: 0
[4]; human therapeutic maximal blood concentration
  Cmax (ng or µg/ml): 0.116 µg/mL
[4]; read-out: Cmax at µM, human therapeutic maximal blood concentration
  Cmax: 0.24 µM
[5]; 1 DILI positive, 0 negative according to labeling
  DILI potential (based on labeling): 0
[6]
  ROS measured by CM-H2DCFDA at 1XCmax: 0
  ROS measured by CM-H2DCFDA at 2.5XCmax: 0
  ROS measured by CM-H2DCFDA at 5XCmax: 0
  ROS measured by CM-H2DCFDA at 10XCmax: 0
  ROS measured by CM-H2DCFDA at 20XCmax: 0
  ROS measured by CM-H2DCFDA at 30XCmax: 0
  ROS measured by CM-H2DCFDA at 50XCmax: 0
  ROS measured by CM-H2DCFDA at 100XCmax: 0

## N#CC[C@H](C1CCCC1)n1cc(-c2ncnc3[nH]ccc23)cn1 [ruxolitinib phosphate]
[1]
  State 3 respiration driven by glutamate/malate at 1XCmax: 0
  State 3 respiration driven by succinate at 1XCmax: 0
  State 4 respiration driven by glutamate/malate at 1XCmax: 0
  State 4 respiration driven by succinate at 1XCmax: 0
  State 3 respiration driven by glutamate/malate at 2.5XCmax: 0
  State 3 respiration driven by succinate at 2.5XCmax: 0
  State 4 respiration driven by glutamate/malate at 2.5XCmax: 0
  State 4 respiration driven by succinate at 2.5XCmax: 0
  State 3 respiration driven by glutamate/malate at 5XCmax: 0
  State 3 respiration driven by succinate at 5XCmax: 0
  State 4 respiration driven by glutamate/malate at 5XCmax: 0
  State 4 respiration driven by succinate at 5XCmax: 0
  State 3 respiration driven by glutamate/malate at 10XCmax: 0
  State 3 respiration driven by succinate at 10XCmax: 0
  State 4 respiration driven by glutamate/malate at 10XCmax: 0
  State 4 respiration driven by succinate at 10XCmax: 0
  State 3 respiration driven by glutamate/malate at 20XCmax: 0.62±0.05
  State 3 respiration driven by succinate at 20XCmax: 0
  State 4 respiration driven by glutamate/malate at 20XCmax: 0
  State 4 respiration driven by succinate at 20XCmax: 0
  State 3 respiration driven by glutamate/malate at 30XCmax: 0.54±0.02
  State 3 respiration driven by succinate at 30XCmax: 0
  State 4 respiration driven by glutamate/malate at 30XCmax: 0
  State 4 respiration driven by succinate at 30XCmax: 0
  State 3 respiration driven by glutamate/malate at 50XCmax: 0.49±0.06
  State 3 respiration driven by succinate at 50XCmax: 0
  State 4 respiration driven by glutamate/malate at 50XCmax: 0
  State 4 respiration driven by succinate at 50XCmax: 0
  State 3 respiration driven by glutamate/malate at 100XCmax: 0.28±0.06
  State 3 respiration driven by succinate at 100XCmax: 0
  State 4 respiration driven by glutamate/malate at 100XCmax: 0.71±0.08
  State 4 respiration driven by succinate at 100XCmax: 0
RCC I; [7]
  RCC I at 10XCmax: 0
RCC II; [7]
  RCC II at 1.0XCmax: 0
  RCC II at 2.5XCmax: 0
  RCC II at 5XCmax: 0
  RCC II at 10XCmax: 0
  RCC II at 20XCmax: 0
  RCC II at 30XCmax: 0
  RCC II at 50XCmax: 0
  RCC II at 100XCmax: 0
RCC III; [7]
  RCC III at 100XCmax: 0
RCC V; [7]
  RCC V at 5XCmax: 0
  RCC V at 50XCmax: 0
[2]
  Swelling 1XCmax: 0
  Swelling 2.5XCmax: 0
  Swelling 5XCmax: 0
  Swelling 10XCmax: 0
  Swelling 20XCmax: 0
  Swelling 30XCmax: 0
  Swelling 50XCmax: 0
  Swelling 100XCmax: 0
[3]
  Cytochrome c release 1XCmax: 0
  Cytochrome c release 2.5XCmax: 0
  Cytochrome c release 5XCmax: 0
  Cytochrome c release 10XCmax: 0
  Cytochrome c release 20XCmax: 0
  Cytochrome c release 30XCmax: 0
  Cytochrome c release 50XCmax: 13.84±2.24 percentage of the positive control group
  Cytochrome c release 100XCmax: 8.09±1.58 percentage of the positive control group
[4]; read-out: Cmax at µM, therapeutic maximal blood concentration
  Cmax: 1.2 µM
[4]; therapeutic maximal blood concentration
  Cmax: 368 ng/mL
[5]; 1 = DILI positive, 0 = negative
  DILI potential (based on labeling): 0
[6]
  ROS measured by CM-H2DCFDA at 1XCmax: 0
  ROS measured by CM-H2DCFDA at 2.5XCmax: 0
  ROS measured by CM-H2DCFDA at 5XCmax: 0
  ROS measured by CM-H2DCFDA at 10XCmax: 0
  ROS measured by CM-H2DCFDA at 20XCmax: 0
  ROS measured by CM-H2DCFDA at 30XCmax: 0
  ROS measured by CM-H2DCFDA at 50XCmax: 0
  ROS measured by CM-H2DCFDA at 100XCmax: 0
